Measured values reported in US20040063580A1, “Bicyclic triazolone derivatives and a herbicides containing the same” (priority 2000, published 2004).

Experiments:
redroot pigweed = experiment: Herbicidal effects against weeds (post emergence), redroot pigweed; format: in vivo; conditions: post emergence spray, evaluated two weeks after treatment
Procedure: (§1) Herbicidal Effects Against Weeds (Post Emergence)
(§2) After filling 300 g field soil in jiffypot™ having diameter of 10 cm, the soil was steam sterilized. Seeds of velvetleaf, redroot pigweed, tall morningglory and corn onto the surface of the soil were scattered, and then covered with the soil to a thickness of 0.5 cm for the weed, 1 cm for the crop. When the weed and the crop reached the designated growth stage, they were treated with the compound to be tested.
(§3) Preparation of the Test Solution and the Method of Treatment
(§4) The compound to be tested was dissolved in acetone which contain Tween 20™ and diluted with deionized water to prepare the test solution for 10 g/a and 1 g/a use. The test solution was sprayed on the pots in a device for spraying using spraygun.
(§5) Method of Indicating the Effect and Phytotoxicity
(§6) The effect of the compound tested on the weeds and phytotoxicity on the crops were evaluated two weeks after treatment with the compound as 6 grades from 0 to 5 shown in the Table 9 and 10.
(§7) In the Table 11 and 12, the herbicidal effects were indicated by the following evaluation index.

velvetleaf = experiment: Herbicidal effects against weeds (post emergence), velvetleaf; format: in vivo; conditions: post emergence spray, evaluated two weeks after treatment
Procedure: as §1, §2, §3, §4, §5, §6, §7

corn = experiment: Post emergence test, phytotoxicity on the crop corn; format: in vivo; conditions: post emergence spray, evaluated two weeks after treatment
Procedure: as §1, §2, §3, §4, §5, §6
The phytotoxicity was indicated by the following evaluation index.

Compound	melting point [°C]	Evaluation index Redroot pigweed (redroot pigweed; 10 g/a)	Evaluation index Velvet leaf (velvetleaf; 10 g/a)	Evaluation index Corn (phytotoxicity) (corn; 1 g/a)	Evaluation index Corn (phytotoxicity) (corn; 10 g/a)	Evaluation index Redroot pigweed (redroot pigweed; 1 g/a)	Evaluation index Velvet leaf (velvetleaf; 1 g/a)
CC(C)c1sc(F)c(-n2nc3ccc(Cl)cn3c2=O)c1C#N [Compound No. A-18, 6-Chloro-2-(4-cyano-2-fluoro-5-isopropylthiophenyl)-1,2,4-triazolo[4,3-a]pyridin-3(2H)-one]	148 to 150	–	–	–	–	–	–
CCCS(=O)(=O)Nc1cc(-n2nc3ccc(Cl)cn3c2=O)c(F)cc1[N+](=O)[O-] [A-40]	–	5 (maximum *all dead) 100)	5 (maximum *all dead) 100)	–	–	–	–
CCS(=O)(=O)Nc1cc(-n2nc3n(c2=O)CCCS3)c(F)cc1C#N [Compound No. E-1, 5,6-Dihydro-2-(4-cyano-5-ethylsulfonylamino-2-fluorophenyl)-7H-[1,2,4]triazolo[3,4-b][1,3]thiazin-3(2H)-one]	193 to 195	5 (maximum *all dead) 100)	5 (maximum *all dead) 100)	1 (small 0.1 to 12.5)	1 (small 0.1 to 12.5)	5 (maximum *all dead) 100)	5 (maximum *all dead) 100)
COc1cc(-n2nc3ccc(Cl)cn3c2=O)c(F)cc1Cl [Compound No. A-23, 6-Chloro-2-(4-chloro-2-fluoro-5-methoxyphenyl)-1,2,4-triazolo[4,3-a]pyridin-3(2H)-one]	140 to 142	–	–	–	–	–	–
C#CC(C)Oc1cc(-n2nc3ccc(Cl)cn3c2=O)c(F)cc1Cl (centres unmarked) [A-26]	–	5 (maximum *all dead) 100)	5 (maximum *all dead) 100)	–	–	5 (maximum *all dead) 100)	5 (maximum *all dead) 100)
CCOC(=O)C=Cc1cc(-n2nc3ccc(Cl)cn3c2=O)c(F)cc1Cl [A-42, Ethyl 2-chloro-4-fluoro-5-(6-chloro-2,3-dihydro-3-oxo-1,2,4-triazolo[4,3-a]pyridin-2-yl)cinnamate]	162 to 165	–	–	–	–	–	–
CC(C)S(=O)(=O)Nc1cc(-n2nc3ccc(Cl)cn3c2=O)c(F)cc1C#N [A-11]	–	5 (maximum *all dead) 100)	5 (maximum *all dead) 100)	–	–	–	–
CCS(=O)(=O)Nc1cc(-n2nc3ccc(Br)cn3c2=O)ccc1C#N [A-45]	–	–	–	–	–	5 (maximum *all dead) 100)	5 (maximum *all dead) 100)
CCC(=O)NS(=O)(=O)c1cc(-n2nc3ccc(Cl)cn3c2=O)c(F)cc1C#N [Compound No. A-20, 5-(6-Chloro-2,3-dihydro-3-oxo-1,2,4-triazolo[4,3-a]pyridin-2-yl)-2-cyano-4-fluoro-N-propionylbenzenesul fonamide]	190 to 194	–	–	–	–	–	–
C=CCOc1cc(-n2nc3ccc(Cl)cn3c2=O)c(F)cc1C#N [Compound No. A-13, 2-(5-Allyloxy-4-cyano-2-fluorophenyl)-6-chloro-1,2,4-triazolo[4,3-a]pyridin-3(2H)-one]	183 to 185	–	–	–	–	–	–
CCS(=O)(=O)N(C(=O)C(C)(C)C)c1cc(-n2nc3ccc(Cl)cn3c2=O)c(F)cc1C#N [A-8]	–	5 (maximum *all dead) 100)	5 (maximum *all dead) 100)	–	–	5 (maximum *all dead) 100)	5 (maximum *all dead) 100)
CCOC(=O)C(C)Oc1cc(-n2nc3ccc(Cl)cn3c2=O)c(F)cc1Cl (centres unmarked) [A-28]	–	5 (maximum *all dead) 100)	5 (maximum *all dead) 100)	–	–	5 (maximum *all dead) 100)	4 (maximum 87.6 to 99.9)
CCS(=O)(=O)Nc1cc(-n2nc3n(c2=O)CCS3)c(F)cc1C#N [Compound No. C-2, 5,6-Dihydro-2-(4-cyano-5-ethylsulfonylamino-2-fluorophenyl)thiazolo[2,3-c][1,2,4]triazol-3(2H)-one]	–	5 (maximum *all dead) 100)	5 (maximum *all dead) 100)	0 (no effect 0)	0 (no effect 0)	5 (maximum *all dead) 100)	5 (maximum *all dead) 100)
CCS(=O)(=O)Nc1cc(-n2nc3n(c2=O)CC(C)S3)c(F)cc1C#N (centres unmarked) [C-4]	–	5 (maximum *all dead) 100)	5 (maximum *all dead) 100)	–	–	5 (maximum *all dead) 100)	5 (maximum *all dead) 100)
CCOC(=O)COc1cc(-n2nc3cc(C)ccn3c2=O)c(F)cc1Cl [A-55]	–	5 (maximum *all dead) 100)	4 (maximum 87.6 to 99.9)	–	–	–	–
C#CCN(c1cc(-n2nc3ccc(Cl)cn3c2=O)c(F)cc1C#N)S(=O)(=O)CC [Compound No. A-5, 6-Chloro-2-[4-cyano-5-(N-ethanesulfonyl-N-propargylamino)-2-fluorophenyl]-1,2,4-triazolo[4,3-a]pyridin-3(2H)-one]	176 to 178	–	–	–	–	–	–
C=C(Cl)COc1cc(-n2nc3ccc(Cl)cn3c2=O)c(F)cc1Cl [A-61]	–	5 (maximum *all dead) 100)	4 (maximum 87.6 to 99.9)	–	–	–	–
CC(C)S(=O)(=O)Nc1cc(-n2nc3ccc(Cl)cn3c2=O)c(F)cc1[N+](=O)[O-] [A-41]	–	5 (maximum *all dead) 100)	5 (maximum *all dead) 100)	–	–	5 (maximum *all dead) 100)	5 (maximum *all dead) 100)
CCC(=O)N(c1cc(-n2nc3ccc(Cl)cn3c2=O)c(F)cc1C#N)S(=O)(=O)CC [A-7]	–	5 (maximum *all dead) 100)	5 (maximum *all dead) 100)	–	–	–	–
COC(=O)C(Cl)Cc1cc(-n2nc3ccc(Cl)cn3c2=O)c(F)cc1Cl (centres unmarked) [Compound No. A-43, Methyl 2-chloro-3-[2-chloro-4-fluoro-5-(6-chloro-2,3-dihydro-3-oxo-1,2,4-triazolo[4,3-a]pyridin-2-yl)phenyl]propionate]	–	5 (maximum *all dead) 100)	5 (maximum *all dead) 100)	0 (no effect 0)	0 (no effect 0)	5 (maximum *all dead) 100)	5 (maximum *all dead) 100)
CC(C)OC(=O)c1cc(-n2nc3ccc(Cl)cn3c2=O)c(F)cc1Cl [Compound No. A-33, Isopropyl 2-chloro-4-fluoro-5-(6-chloro-2,3-dihydro-3-oxo-1,2,4-triazolo[4,3-a]pyridin-2-yl)benzoate]	120 to 123	–	–	–	–	–	–
CNS(=O)(=O)c1cc(-n2nc3ccc(Cl)cn3c2=O)c(F)cc1C#N [Compound No. A-21, 5-(6-Chloro-2,3-dihydro-3-oxo-1,2,4-triazolo[4,3-a]pyridin-2-yl)-2-cyano-4-fluoro-N-methylbenzenesulfonamide]	154 to 157	–	–	–	–	–	–
CCS(=O)(=O)Nc1cc(-n2nc3n(c2=O)CCCN3C)c(F)cc1C#N [Compound No. F-2, 5,6,7,8-Tetrahydro-8-methyl-2-(4-cyano-5-ethylsulfonylamino-2-fluorophenyl)-[1,2,4]triazolo [4,3-a]pyrimidin-3(2H)-one]	–	5 (maximum *all dead) 100)	5 (maximum *all dead) 100)	1 (small 0.1 to 12.5)	3 (big 25.1 to 50.0)	5 (maximum *all dead) 100)	4 (maximum 87.6 to 99.9)
C#CCOc1cc(-n2nc3ccc(Cl)cn3c2=O)c(F)cc1C#N [Compound No. A-14, 6-Chloro-2-(4-cyano-2-fluoro-5-propargyloxyphenyl)-1,2,4-triazolo[4,3-a]pyridin-3(2H)-one]	209 to 211	–	–	–	–	–	–
C=CCOc1cc(-n2nc3ccc(Cl)cn3c2=O)c(F)cc1Cl [Compound No. A-24]	–	5 (maximum *all dead) 100)	5 (maximum *all dead) 100)	–	–	5 (maximum *all dead) 100)	4 (maximum 87.6 to 99.9)
C#CCOc1cc(-n2nc3c(Cl)cc(Cl)cn3c2=O)c(F)cc1C#N [Compound No. A-49, 6,8-Dichloro-2-(4-cyano-2-fluoro-5-propargyloxyphenyl)-1,2,4-triazolo[4,3-a]pyridin-3(2H)-one]	145 to 147	–	–	–	–	–	–
